From patent US20100035802A1, “PARTICULAR SHORT-CHAIN PEPTIDE CANCER DRUG AND ITS TREATMENT” (priority 2007, published 2010)

Legend:
liver cancer cells = assay: cell experiments: survival and death rate of cancer cells added with the short-chain peptide; format: cell-based
Excerpt: The percent of normal cancer cells 1 is equal to the number of normal cancer cells divided by the summation of the number of normal cancer cells, the number of interphase cancer cells and the number of mitotic phase cancer cells. The percent of interphase cancer cells 2 is equal to the number of interphase cancer cells divided by the summation of the number of normal cancer cells, the number of interphase cancer cells and the number of mitotic phase cancer cells. The percent of mitotic phase cancer cells 3 is equal to the number of mitotic phase cancer cells divided by the summation of the number of normal cancer cells, the number of interphase cancer cells and the number of mitotic phase cancer cells. The percent of dead cancer cells 4 is equal to the number of dead cancer cells divided by the summation of the number of normal cancer cells, the number of interphase cancer cells, the number of mitotic phase cancer cells and the number of dead cancer cells.
In cell experiments, the survival rate of cancer cells added with none of the short-chain peptide is as high as 95%. Apoptosis of cancer cells begins as soon as the short-chain peptide is added to cancer cells; it's obviously found out that after 24 hours, the survival rate of cancer cells is lowered to about 25% and the death rate is raised to about 70%, 35 to 40 times of normal death rate.
(§1) In Attachment, Photos 1˜3 show the cell cycles of liver cancer cells respectively added and not added with the particular short-chain peptide in cell experiments. Photos 4 and 5 show the growth of cancer cells respectively added and not added with the particular short-chain peptide in animal experiments.

cancer cells = assay: animal experiments: growth of cancer cells added with the short-chain peptide; format: in vivo; details: after having been added with the short-chain peptide for a certain period of time
Excerpt: as §1

RGDLASLQKAAHGHVRKAFKSHVSTLTDLQPYMRQFVAHLQETSPLRD (RGDLASLQKAAHGHVRKAFKSHVSTLTDLQPYMRQFVAHLQETSPLRD) [short-chain peptide, unique short-chained peptide composed of 48 amino acids]
effect on cell cleavage of cancer cells (liver cancer cells; cancer cells added with the short-chain peptide): stagnating on the stage of cell cleavage for being further induced to apoptosis to death
death rate of cancer cells (liver cancer cells; cell experiments, after 24 hours with the short-chain peptide): about 70%
survival rate of cancer cells (liver cancer cells; cell experiments, after 24 hours with the short-chain peptide (without peptide 95%)): about 25%
death rate of the liver cancer cells (liver cancer cells; liver cancer cells, after 24-hour culture, repeated experiments): about 70%
death of cancer cells in animal experiments (Photo 5) (cancer cells): die massively via apoptosis
